molecular target: recombinant human nicotinic acid receptor (NAR) (Homo sapiens, UniProt Q8TDS4); experiment: Nicotinic Acid Receptor Assay: inhibition of forskolin-stimulated cAMP accumulation in CHO cells (MesoScale Discovery cAMP kit); type: cell-based; conditions: CHO cells expressing recombinant human NAR; forskolin-stimulated cAMP; read-out: NA EC50 camp
Summary of the method: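 Compounds were diluted in PBS containing 6 μM forskolin and incubated with cells for 30 min at room temperature. cAMP was quantified by the MesoScale kit against an on-plate standard curve.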

Chain of recombinant human nicotinic acid receptor (NAR) (Q8TDS4 whole entry): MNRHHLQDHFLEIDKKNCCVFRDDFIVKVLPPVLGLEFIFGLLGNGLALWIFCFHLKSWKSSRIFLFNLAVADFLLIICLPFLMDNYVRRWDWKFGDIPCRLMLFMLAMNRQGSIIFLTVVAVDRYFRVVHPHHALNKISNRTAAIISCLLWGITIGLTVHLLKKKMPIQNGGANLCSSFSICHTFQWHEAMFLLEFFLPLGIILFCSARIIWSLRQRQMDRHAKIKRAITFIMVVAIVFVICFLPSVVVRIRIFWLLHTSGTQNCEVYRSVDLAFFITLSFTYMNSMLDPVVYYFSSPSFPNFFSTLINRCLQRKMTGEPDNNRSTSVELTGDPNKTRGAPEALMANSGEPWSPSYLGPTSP

Row | Compound | EC50
1 | CCc1cc(=O)oc2nc(OCc3ccccc3-n3ccnc3C)[nH]c(=O)c12 [Compound 583] | 100 to 1000 nM
2 | O=C(OCc1ccccc1)N1CCC(Cc2cc(=O)oc3[nH]c(=O)[nH]c(=O)c23)C1 (stereo not shown) [Compound 233] | > 1000 nM
3 | CCc1cc(=O)oc2nc(OCc3cc4c(C)nn(C)c4s3)[nH]c(=O)c12 [Compound 646] | > 1000 nM
4 | O=c1[nH]c(=O)c2c(CC3CCNC3)cc(=O)oc2[nH]1 (stereo not shown) [Compound 244] | > 1000 nM
5 | CCc1cc(=O)oc2nc(OC(C)COC)[nH]c(=O)c12 (stereo not shown) [Compound 607] | 100 to 1000 nM
6 | CCc1cc(=O)oc2nc(OCc3ccccc3-c3cccc(CO)c3)[nH]c(=O)c12 [Compound 634] | 100 to 1000 nM
7 | CCc1cc(=O)oc2nc(OCc3ccccc3-c3ccc(F)cc3)[nH]c(=O)c12 [Compound 510] | > 1000 nM
8 | O=c1[nH]c(=O)c2c(C3CC3)cc(=O)oc2[nH]1 [Compound 283] | 100 to 1000 nM
9 | CCOC(=O)NOc1nc2oc(=O)cc(CCC(C)C)c2c(=O)[nH]1 [Compound 694] | > 1000 nM
10 | CCC(C)CCc1cc(=O)oc2[nH]c(=O)[nH]c(=O)c12 (stereo not shown) [Compound 247] | 0.001 to 100 nM
11 | CCc1cc(=O)oc2nc(OCCCS(C)(=O)=O)[nH]c(=O)c12 [Compound 650] | 100 to 1000 nM
12 | CCc1cc(=O)oc2nc(OCc3sccc3-n3cccc3)[nH]c(=O)c12 [Compound 533] | > 1000 nM
13 | CCC(CC)Cc1cc(=O)oc2[nH]c(=O)[nH]c(=O)c12 [Compound 267] | > 1000 nM
14 | CCc1cc(=O)oc2nc(OCCO)[nH]c(=O)c12 [Compound 643] | 100 to 1000 nM
15 | CCc1cc(=O)oc2nc(OCc3cc(C)nn3CC)[nH]c(=O)c12 [Compound 678] | 100 to 1000 nM
16 | CCc1cc(=O)oc2nc(OCCCOc3ccccc3)[nH]c(=O)c12 [Compound 596] | 100 to 1000 nM

same assay, conditions: inhibition of forskolin-stimulated cAMP accumulation, CHO cells expressing recombinant human NAR; read-out: NA EC50 camp

Row | Compound | EC50
17 | O=c1cc(CCCC2CC2)c2c(=O)n(CF)c(=O)[nH]c2o1 [Compound 802] | 12 nM
18 | O=c1[nH]c(=O)c2c(CCCCC(F)(F)F)cc(=O)oc2[nH]1 [Compound 112] | 14.4 nM
19 | CCCCCCc1cc(=O)oc2nc(CF)[nH]c(=O)c12 [Compound 755] | 286 nM
20 | CCCCCc1cc(=O)oc2nc(C(F)F)nc(OCc3ccc(OC)cc3)c12 [Compound 742] | 1070 nM
21 | CCCC#CCOc1nc2oc(=O)cc(CCC3CC3)c2c(=O)[nH]1 [Compound 721] | 226 nM
22 | COn1c(=O)[nH]c2oc(=O)cc(CCC3CCCC3)c2c1=O [Compound 772] | 39 nM

Reference: patent publication US7737155B2, “Nitrogen-containing heterocyclic compounds and methods of use thereof” (Schering Corporation, priority 2005, dated 2010)
